From EPA's ToxRefDB 2

Columns and labels:
[1] = tested on: dog; conditions: Chronic toxicity, beagle, Oral, Feed, dose end: 52 week, group: systemic
[2] = tested on: dog; conditions: Subchronic oral toxicity in nonrodent, beagle, Feed, dose end: 28 day, group: systemic
[3] = tested on: rat; conditions: Subchronic oral toxicity in rodents, sprague dawley, Feed, dose end: 90 day, group: systemic
[4] = tested on: rat; conditions: Subchronic oral toxicity in rodents, sprague dawley, Feed, dose end: 13 week, group: systemic, systemic / in life observation / body weight / body weight + systemic / in life observation / body weight / body weight gain + systemic / in…
[5] = tested on: rat; conditions: Multigenerational reproductive toxicity study, sprague dawley, Oral, Feed, dose end: 2 generation
[6] = tested on: rat; conditions: Combined chronic toxicity/carcinogenicity, other, Oral, Feed, dose end: 24 month, group: systemic
[7] = tested on: mouse; conditions: Subchronic oral toxicity in rodents, cd1, Feed, dose end: 90 day
[8] = tested on: rat; conditions: Subchronic oral toxicity in rodents, sprague dawley, Feed, dose end: 13 week, group: systemic
[9] = tested on: mouse; conditions: Carcinogenicity, cd1, Oral, Feed, dose end: 78 week, group: systemic
[10] = tested on: rat; conditions: Prenatal developmental toxicity study, sprague dawley, Oral, Gavage/Intubation, dose end: 15 GD
[11] = tested on: dog; conditions: Subchronic oral toxicity in nonrodent, beagle, Feed, dose end: 90 day, group: systemic
[12] = tested on: rat; conditions: Subchronic oral toxicity in rodents, sprague dawley, Gavage/Intubation, dose end: 13 week, group: systemic
[13] = tested on: rat; conditions: Prenatal developmental toxicity study, sprague dawley, Oral, Gavage/Intubation, dose end: 17 GD
[14] = tested on: mouse; conditions: Subchronic oral toxicity in rodents, cd1, Gavage/Intubation, dose end: 13 week, group: systemic
[15] = tested on: dog; conditions: Sub-acute repeat dose toxicity, beagle, Oral, Gavage/Intubation, dose end: 1 month, group: systemic
[16] = tested on: rabbit; conditions: Prenatal developmental toxicity study; himalayan; Oral; Gavage/Intubation; dose end: 12 GD; group: maternal; systemic / in life observation / body weight / body weight gain + systemic / in life observation / food consumption / food consumption
[17] = tested on: rat; conditions: Fertility (Segment I), sprague dawley, Oral, Gavage/Intubation, dose end: 6 PND
[18] = tested on: rabbit; conditions: Prenatal developmental toxicity study, himalayan, Oral, Gavage/Intubation, dose end: 18 GD
[19] = tested on: rat; conditions: Chronic toxicity; sprague dawley; Oral; Gavage/Intubation; dose end: 6 month; group: systemic; systemic / clinical chemistry / phosphorus / phosphorus + systemic / clinical chemistry / potassium / potassium + systemic / organ weight / …
[20] = tested on: rat; conditions: Sub-acute repeat dose toxicity, sprague dawley, Oral, Gavage/Intubation, dose end: 28 day, group: systemic
[21] = tested on: rabbit; conditions: Prenatal developmental toxicity study, himalayan, Oral, Gavage/Intubation, dose end: 18 GD, group: maternal
[22] = tested on: dog; conditions: Chronic toxicity; beagle; Oral; Gavage/Intubation; dose end: 6 month; group: systemic; systemic / hematology / anisocytosis / anisocytosis + systemic / hematology / jolly bodies / jolly bodies + systemic / hematology / myeloid/…
[23] = tested on: dog; conditions: Chronic toxicity; beagle; Oral; Gavage/Intubation; dose end: 12 month; group: systemic; systemic / hematology / erythrocyte (rbc) count differential / erythrocyte (rbc) + systemic / hematology / hematocrit (hct) / hematocrit (…
[24] = tested on: rabbit; conditions: Prenatal developmental toxicity study; new zealand white; Oral; Gavage/Intubation; dose end: 18 GD; group: maternal; systemic / in life observation / body weight / body weight gain
[25] = systemic / in life observation / body weight / body weight + systemic / in life observation / body weight / body weight gain + systemic / in…
[26] = systemic / in life observation / body weight / body weight gain
[27] = systemic / in life observation / body weight / body weight gain + systemic / in life observation / food consumption / food consumption + …
[28] = systemic / pathology microscopic / spleen / pigmentation
[29] = systemic / pathology microscopic / spleen / pigmentation + systemic / in life observation / body weight / body weight + systemic / in life …
[30] = group: offspring, developmental / developmental landmark / preputial separation / preputial separation + systemic / in life observation / body weight / litter…
[31] = group: parental, systemic / in life observation / body weight / body weight + systemic / in life observation / body weight / body weight gain + systemic / in…
[32] = group: reproductive, reproductive / offspring survival early / litter size / litter size
[33] = systemic / in life observation / clinical signs / respiration (rales)
[34] = group: cholinesterase, cholinesterase / cholinesterase / cholinesterase / cholinesterase (che)
[35] = group: systemic, systemic / clinical chemistry / glucose / glucose + systemic / in life observation / body weight / body weight + systemic / in life …
[36] = systemic / pathology microscopic / kidney / inclusion body intranuclear
[37] = systemic / pathology microscopic / kidney / inclusion body intranuclear + systemic / in life observation / body weight / body weight + …
[38] = systemic / in life observation / body weight / body weight + systemic / in life observation / body weight / body weight gain + systemic / …
[39] = systemic / pathology microscopic / bone marrow / hyperplasia
[40] = group: developmental, developmental / developmental malformation / bone / short
[41] = group: maternal, systemic / in life observation / body weight / body weight + systemic / in life observation / body weight / body weight gain + systemic / in…
[42] = systemic / in life observation / body weight / body weight gain + systemic / in life observation / body weight / body weight + systemic / in…
[43] = systemic / in life observation / body weight / body weight gain + systemic / in life observation / food consumption / food consumption
[44] = systemic / clinical chemistry / phosphorus / phosphorus + systemic / clinical chemistry / potassium / potassium + systemic / clinical …
[45] = systemic / clinical chemistry / phosphorus / phosphorus + systemic / clinical chemistry / urea nitrogen / urea nitrogen + systemic / …
[46] = group: developmental, developmental / developmental malformation / bone / delayed ossification + developmental / developmental malformation / bone / unossified
[47] = group: maternal, systemic / in life observation / body weight / body weight gain + systemic / in life observation / food consumption / food consumption
[48] = group: maternal, systemic / in life observation / body weight / body weight gain + systemic / in life observation / food consumption / food consumption + …
[49] = systemic / clinical chemistry / creatinine / creatinine + systemic / clinical chemistry / potassium / potassium + systemic / clinical …
[50] = systemic / clinical chemistry / urea nitrogen / urea nitrogen + systemic / hematology / hemoglobin (hgb) / hemoglobin (hgb) + systemic / …
[51] = systemic / hematology / [other] / [other] + systemic / hematology / erythrocyte (rbc) count differential / erythrocyte (rbc) + systemic / …
[52] = systemic / hematology / erythrocyte (rbc) count differential / erythrocyte (rbc) + systemic / hematology / hematocrit (hct) / hematocrit (…
[53] = group: maternal, reproductive / reproductive performance / estrous cycle / corpora lutea + reproductive / reproductive performance / implantations / …
[54] = group: parental, systemic / in life observation / body weight / body weight gain + systemic / in life observation / clinical signs / fur (altered appearance…
[55] = group: parental, systemic / in life observation / body weight / body weight gain + systemic / in life observation / food consumption / food efficiency
[56] = group: developmental, developmental / developmental malformation / limb / [other] + systemic / in life observation / body weight / fetal weight
[57] = group: maternal, reproductive / reproductive performance / aborted / aborted + reproductive / reproductive performance / premature delivery / premature …
[58] = systemic / clinical chemistry / creatinine / creatinine + systemic / clinical chemistry / glucose / glucose + systemic / clinical chemistry…

## CC(=NC#N)N(C)Cc1ccc(Cl)nc1 [Acetamiprid]
[1]; systemic / in life observation / body weight / body weight + systemic / in life observation / body weight / body weight gain
  LOAEL: 55 mg/kg/day
[1]; [25]
  LEL: 55 mg/kg/day
  NEL: 20 mg/kg/day
  NOAEL: 20 mg/kg/day
[2]; [26]
  LEL: 28 mg/kg/day
  LOAEL: 28 mg/kg/day
[2]; [27]
  NEL: 16.7 mg/kg/day
  NOAEL: 16.7 mg/kg/day
[3]; [28]
  LEL: 112 mg/kg/day
  LOAEL: 112 mg/kg/day
[3]; [29]
  NEL: 36.5 mg/kg/day
  NOAEL: 36.5 mg/kg/day
[4]
  LEL: 50.8 mg/kg/day
  LOAEL: 50.8 mg/kg/day
  NEL: 12.4 mg/kg/day
  NOAEL: 12.4 mg/kg/day
[5]; group: offspring, developmental / developmental landmark / preputial separation / preputial separation
  LEL: 17.9 mg/kg/day
[5]; [30]
  LOAEL: 51 mg/kg/day
  NEL: 6.5 mg/kg/day
  NOAEL: 17.9 mg/kg/day
[5]; [31]
  LOAEL: 51 mg/kg/day
  NEL: 6.5 mg/kg/day
  NOAEL: 17.9 mg/kg/day
[5]; group: parental, systemic / in life observation / body weight / body weight gain
  LEL: 17.9 mg/kg/day
[5]; [32]
  LEL: 51 mg/kg/day
  LOAEL: 51 mg/kg/day
  NEL: 17.9 mg/kg/day
  NOAEL: 17.9 mg/kg/day
[6]; [33]
  LEL: 7.1 mg/kg/day
  NEL: < 7.1 mg/kg/day
[6]; systemic / pathology microscopic / liver / vacuolization
  LOAEL: 17.5 mg/kg/day
[6]; systemic / pathology microscopic / liver / vacuolization + systemic / in life observation / body weight / body weight + systemic / in life …
  NOAEL: 7.1 mg/kg/day
[7]; [34]
  LEL: 430 mg/kg/day
  LOAEL: > 430 mg/kg/day
  NEL: 211 mg/kg/day
  NOAEL: ≥ 430 mg/kg/day
[7]; [35]
  LEL: 211 mg/kg/day
  LOAEL: 211 mg/kg/day
  NEL: 106 mg/kg/day
  NOAEL: 106 mg/kg/day
[8]; [36]
  LEL: 250 mg/kg/day
  LOAEL: 250 mg/kg/day
[8]; [37]
  NEL: 48.9 mg/kg/day
  NOAEL: 48.9 mg/kg/day
[9]; [38]
  LOAEL: 65.6 mg/kg/day
  NOAEL: 20.3 mg/kg/day
[9]; [39]
  LEL: 20.3 mg/kg/day
  NEL: < 20.3 mg/kg/day
[10]; [40]
  LEL: 50 mg/kg/day
  LOAEL: 50 mg/kg/day
  NEL: 16 mg/kg/day
  NOAEL: 16 mg/kg/day
[10]; [41]
  LEL: 50 mg/kg/day
  LOAEL: 50 mg/kg/day
  NEL: 16 mg/kg/day
  NOAEL: 16 mg/kg/day
[11]; [26]
  LOAEL: 32 mg/kg/day
[11]; [42]
  NEL: 14 mg/kg/day
  NOAEL: 14 mg/kg/day
[11]; [43]
  LEL: 32 mg/kg/day

## CC(=O)S[C@H](C(=O)N[C@H]1Cc2ccccc2[C@H]2CCC[C@@H](C(=O)O)N2C1=O)C(C)C [Ilepatril]
[12]; [44]
  LOAEL: > 1600 mg/kg/day
  NOAEL: ≥ 1600 mg/kg/day
[12]; [45]
  LEL: 400 mg/kg/day
  NEL: < 400 mg/kg/day
[13]; [46]
  LEL: 300 mg/kg/day
  LOAEL: 300 mg/kg/day
  NEL: 30 mg/kg/day
  NOAEL: 30 mg/kg/day
[13]; [47]
  LEL: 300 mg/kg/day
  LOAEL: 300 mg/kg/day
[13]; [48]
  NEL: 30 mg/kg/day
  NOAEL: 30 mg/kg/day
[14]; [49]
  LOAEL: > 1600 mg/kg/day
  NOAEL: ≥ 1600 mg/kg/day
[14]; [50]
  LEL: 400 mg/kg/day
  NEL: < 400 mg/kg/day
[15]; [51]
  LOAEL: 50 mg/kg/day
  NOAEL: 10 mg/kg/day
[15]; [52]
  LEL: 10 mg/kg/day
  NEL: < 10 mg/kg/day
[16]
  LEL: 0.8 mg/kg/day
  LOAEL: > 2 mg/kg/day
  NEL: 0.32 mg/kg/day
  NOAEL: ≥ 2 mg/kg/day
[17]; [53]
  LEL: 1000 mg/kg/day
  LOAEL: > 1000 mg/kg/day
  NEL: 100 mg/kg/day
  NOAEL: ≥ 1000 mg/kg/day
[17]; [54]
  LOAEL: > 1000 mg/kg/day
  NOAEL: ≥ 1000 mg/kg/day
[17]; [55]
  LEL: 10 mg/kg/day
  NEL: < 10 mg/kg/day
[18]; group: developmental, developmental / developmental malformation / limb / [other]
  LEL: 3.2 mg/kg/day
[18]; [56]
  LOAEL: > 160 mg/kg/day
  NEL: 1 mg/kg/day
  NOAEL: ≥ 160 mg/kg/day
[18]; [57]
  LOAEL: > 160 mg/kg/day
  NOAEL: ≥ 160 mg/kg/day
[18]; [47]
  LEL: 1 mg/kg/day
  NEL: < 1 mg/kg/day
[19]
  LEL: 10 mg/kg/day
  LOAEL: > 1000 mg/kg/day
  NEL: < 10 mg/kg/day
  NOAEL: ≥ 1000 mg/kg/day
[20]; [58]
  LOAEL: > 1000 mg/kg/day
  NOAEL: ≥ 1000 mg/kg/day
[20]; [49]
  LEL: 30 mg/kg/day
  NEL: < 30 mg/kg/day
[21]; [43]
  LEL: 0.8 mg/kg/day
  LOAEL: 0.8 mg/kg/day
[21]; [27]
  NEL: 0.32 mg/kg/day
  NOAEL: 0.32 mg/kg/day
[22]
  LEL: 30 mg/kg/day
  LOAEL: > 30 mg/kg/day
  NEL: 10 mg/kg/day
  NOAEL: ≥ 30 mg/kg/day
[23]
  LEL: 12 mg/kg/day
  LOAEL: > 12 mg/kg/day
  NEL: 6 mg/kg/day
  NOAEL: ≥ 12 mg/kg/day

## Cc1cccc(C)c1NC(=O)CC12CCCN1CCC2.Cl [Pilsicainide hydrochloride]
[24]
  LEL: 10 mg/kg/day
  LOAEL: > 20 mg/kg/day
  NEL: 5 mg/kg/day
  NOAEL: ≥ 20 mg/kg/day
